According to paper PMC10713630, “Elucidation of the structural basis for ligand binding and translocation in conserved insect odorant receptor co-receptors” (Nature Communications, 2023):
Values joined by “and” are separate entries in the source; they are usually repeats but may differ in a detail not shown here. Equal values may be shown once. “Also recorded” adds a separate entry of the source.

Tests used:
Format in all cases: cell-based
DmelOrco Y390A = DmelOrco Y390A (Drosophila melanogaster, UniProt Q9VNB5, Y390A); assay: TEVC recording of VUAA1-induced current, DmelOrco Y390A in Xenopus oocytes; details: 500 µM VUAA1, TEVC
From the text: (§1) All Orco gene sequences were optimized[63] for protein expression in Xenopus laevis oocytes with the GenSmartTM Codon optimization Tool and subcloned into a pGEMHE-derived vector. The wildtype gene of Drosophila melanogaster Orco (DmelOrco) was synthesized by Genscript and subcloned with XmaI/XhoI cloning sites. Site-directed mutagenesis of DmelOrco was done by PCR with the Q5® site directed mutagenesis kit (NEB) using primers optimized with the NEBase Changer online tool and following the supplier’s protocol. After transformation of commercial competent bacteria (XL10 Gold) by standard heat-shock protocol and overnight culture in ampicillin-containing LB plates, positive clones were identified by electrophoretic restriction profile and external sequencing (Genewiz). DNAs of positive clones were amplified with Qiagen MidiPrep Kit and the ORF was fully sequenced. For in vitro transcription, DNAs were linearized with restriction enzyme NotI that cuts a unique site in the 3′ region of the polyA tail. […] DNA and RNA were analyzed by agarose-gel electrophoresis and quantified by spectrophotometry. […]
(§2) Whole cell currents were recorded with the two-electrode voltage-clamp (TEVC) technique with the HiClamp robot (MultiChannel System). […] Data were extracted with M. Vivaudou’s programs[65] and statistically analyzed with Prism 8 (Graphpad).

DmelOrco F84S = DmelOrco F84S (Drosophila melanogaster, UniProt Q9VNB5, F84S); assay: TEVC recording of VUAA1-induced current, DmelOrco F84S in Xenopus oocytes; details: 500 µM VUAA1, TEVC
From the text: as §1, §2

DmelOrco I181W = DmelOrco I181W (Drosophila melanogaster, UniProt Q9VNB5, I181W); assay: TEVC recording of VUAA1-induced current, DmelOrco I181W in Xenopus oocytes; parameters: VUAA1-induced current, i181W: unit not given here
From the text: as §1, §2

DmelOrco M210L = DmelOrco M210L (Drosophila melanogaster, UniProt Q9VNB5, M210L); assay: TEVC recording of VUAA1-induced current, DmelOrco M210L in Xenopus oocytes; details: 500 µM VUAA1, TEVC
From the text: as §1, §2

DmelOrco Y397A = DmelOrco Y397A (Drosophila melanogaster, UniProt Q9VNB5, Y397A); assay: TEVC recording of VUAA1-induced current, DmelOrco Y397A in Xenopus oocytes; parameters: VUAA1-induced current, Y397A: unit not given here
From the text: as §1, §2

DmelOrco F83A = DmelOrco F83A (Drosophila melanogaster, UniProt Q9VNB5, F83A); assay: TEVC recording of VUAA1-induced current, DmelOrco F83A in Xenopus oocytes; details: 500 µM VUAA1, TEVC
From the text: as §1, §2

DmelOrco V206S = DmelOrco V206S (Drosophila melanogaster, UniProt Q9VNB5, V206S); assay: TEVC recording of VUAA1-induced current, DmelOrco V206S in Xenopus oocytes; parameters: unit not given here; details: Fig.4b; individual oocytes
From the text: as §1, §2

DmelOrco T80W = DmelOrco T80W (Drosophila melanogaster, UniProt Q9VNB5, T80W); assay: TEVC recording of VUAA1-induced current, DmelOrco T80W in Xenopus oocytes; parameters: VUAA1-induced current, T80W: unit not given here; details: for VUAA1-induced current, T80W: individual oocytes
From the text: All Orco gene sequences were optimized[63] for protein expression in Xenopus laevis oocytes with the GenSmartTM Codon optimization Tool and subcloned into a pGEMHE-derived vector. The wildtype gene of Drosophila melanogaster Orco (DmelOrco) was synthesized by Genscript and subcloned with XmaI/XhoI cloning sites. Site-directed mutagenesis of DmelOrco was done by PCR with the Q5® site directed mutagenesis kit (NEB) using primers optimized with the NEBase Changer online tool and following the supplier’s protocol. After transformation of commercial competent bacteria (XL10 Gold) by standard heat-shock protocol and overnight culture in ampicillin-containing LB plates, positive clones were identified by electrophoretic restriction profile and external sequencing (Genewiz). DNAs of positive clones were amplified with Qiagen MidiPrep Kit and the ORF was fully sequenced. For in vitro transcription, DNAs were linearized with restriction enzyme NotI that cuts a unique site in the 3′ region of the polyA tail. The linearized DNAs were purified by the standard phenol:chloroform extraction method and transcribed into mRNA using the T7 ultra mMessage mMachine kit (Thermo Fisher Scientific). mRNAs were purified with the NucleoSpin RNA plus XS kit (Machery-Nagel). DNA and RNA were analyzed by agarose-gel electrophoresis and quantified by spectrophotometry.
Xenopus laevis oocytes were prepared, as previously described. Briefly, oocytes were defolliculated after surgical retrieval by type 1 A collagenase over 2-3 h under smooth horizontal agitation. They were manually selected and incubated at 19 °C in modified-Barth’s solution (1 mM KCl, 0.82 mM MgSO4, 88 mM NaCl, 2.4 mM NaHCO3, 0.41 mM CaCl2, Ca(NO3)2 0.3 mM, 16 mM HEPES, pH 7.4) supplemented with 100 U mL^−1 of penicillin and streptomycin and 0.1 mg mL^−1 of gentamycin. Each oocyte was micro-injected with the Nanoject instrument (Drummond) with 50 nL of 20 ng of mRNA coding for the Orco of interest. Injected oocytes were incubated individually in 96-well plates for 4 days at 19 °C in the same buffer. Different batches of oocytes have been tested per construct. The results of the mutants of interest have been confirmed by a second set of experiments comparing the amplitudes with WT in the same day and from the same batch of oocytes (Supplementary Fig. 11).
Whole cell currents were recorded with the two-electrode voltage-clamp (TEVC) technique with the HiClamp robot (MultiChannel System). Microelectrodes were filled with 3 M KCl. The high K^+ buffer used for recordings was composed of 91 mM KCl, 1 mM MgCl2, 1.8 mM CaCl2, 5 mM HEPES, pH 7.4. Membrane voltage was clamped to −50 mV and VUAA1 was applied for 60 s. Data were extracted with M. Vivaudou’s programs[65] and statistically analyzed with Prism 8 (Graphpad).

DmelOrco L141V = DmelOrco L141V (Drosophila melanogaster, UniProt Q9VNB5, L141V); assay: TEVC recording of VUAA1-induced current, DmelOrco L141V in Xenopus oocytes; details: 500 µM VUAA1, TEVC
From the text: as §1, with “sequenced.” for “sequenced. For in vitro transcription, DNAs were linearized with restriction enzyme NotI that cuts a unique site in the 3′ region of the polyA tail.”
Whole cell currents were recorded with the two-electrode voltage-clamp (TEVC) technique with the HiClamp robot (MultiChannel System). […] Data were extracted with M. Vivaudou’s programs[65] and statistically analyzed with Prism 8 (Graphpad). […]
100 by 500 µM of the ligand VUAA1 and measured by TEVC recordings on DmelOrco WT and mutants […]

DmelOrco I79A = DmelOrco I79A (Drosophila melanogaster, UniProt Q9VNB5, I79A); assay: TEVC recording of VUAA1-induced current, DmelOrco I79A in Xenopus oocytes; parameters: VUAA1-induced current, i79A: unit not given here
From the text: as §1, §2

DmelOrco M210A = DmelOrco M210A (Drosophila melanogaster, UniProt Q9VNB5, M210A); assay: TEVC recording of VUAA1-induced current, DmelOrco M210A in Xenopus oocytes; details: 500 µM VUAA1, TEVC
From the text: as §1, §2

DmelOrco Y390S = DmelOrco Y390S (Drosophila melanogaster, UniProt Q9VNB5, Y390S); assay: TEVC recording of VUAA1-induced current, DmelOrco Y390S in Xenopus oocytes; details: 500 µM VUAA1, TEVC
From the text: as §1, §2

DmelOrco K373A = DmelOrco K373A (Drosophila melanogaster, UniProt Q9VNB5, K373A); assay: TEVC recording of VUAA1-induced current, DmelOrco K373A in Xenopus oocytes; parameters: VUAA1-induced current, K373A: unit not given here
From the text: as §1, §2

DmelOrco I79A, sequence (Q9VNB5 whole entry I79A, the tested form may be a part): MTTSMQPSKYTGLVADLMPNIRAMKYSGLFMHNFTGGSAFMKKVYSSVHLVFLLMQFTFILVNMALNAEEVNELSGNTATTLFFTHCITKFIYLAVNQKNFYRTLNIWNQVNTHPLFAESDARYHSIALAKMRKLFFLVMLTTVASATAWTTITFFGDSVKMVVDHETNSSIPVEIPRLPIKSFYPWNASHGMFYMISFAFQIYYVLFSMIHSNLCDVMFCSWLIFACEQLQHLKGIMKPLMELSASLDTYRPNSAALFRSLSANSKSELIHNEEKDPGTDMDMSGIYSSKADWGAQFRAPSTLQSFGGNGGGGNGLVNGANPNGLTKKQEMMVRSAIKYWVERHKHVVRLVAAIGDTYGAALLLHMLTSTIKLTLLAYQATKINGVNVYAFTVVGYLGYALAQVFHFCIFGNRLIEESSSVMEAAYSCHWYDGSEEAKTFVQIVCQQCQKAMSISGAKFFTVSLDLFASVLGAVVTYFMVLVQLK
DmelOrco T80W, sequence (Q9VNB5 whole entry T80W, the tested form may be a part): as the sequence (Q9VNB5 whole entry I79A, the tested form may be a part) above, with A79I, T80W counted along it
DmelOrco K373A, sequence (Q9VNB5 whole entry K373A, the tested form may be a part): as the sequence (Q9VNB5 whole entry I79A, the tested form may be a part) above, with A79I, K373A counted along it
DmelOrco V206S, sequence (Q9VNB5 whole entry V206S, the tested form may be a part): as the sequence (Q9VNB5 whole entry I79A, the tested form may be a part) above, with A79I, V206S counted along it
DmelOrco Y397A, sequence (Q9VNB5 whole entry Y397A, the tested form may be a part): as the sequence (Q9VNB5 whole entry I79A, the tested form may be a part) above, with A79I, Y397A counted along it
DmelOrco I181W, sequence (Q9VNB5 whole entry I181W, the tested form may be a part): as the sequence (Q9VNB5 whole entry I79A, the tested form may be a part) above, with A79I, I181W counted along it
DmelOrco Y390A, sequence (Q9VNB5 whole entry Y390A, the tested form may be a part): as the sequence (Q9VNB5 whole entry I79A, the tested form may be a part) above, with A79I, Y390A counted along it
DmelOrco F83A, sequence (Q9VNB5 whole entry F83A, the tested form may be a part): as the sequence (Q9VNB5 whole entry I79A, the tested form may be a part) above, with A79I, F83A counted along it
DmelOrco Y390S, sequence (Q9VNB5 whole entry Y390S, the tested form may be a part): as the sequence (Q9VNB5 whole entry I79A, the tested form may be a part) above, with A79I, Y390S counted along it
DmelOrco M210A, sequence (Q9VNB5 whole entry M210A, the tested form may be a part): as the sequence (Q9VNB5 whole entry I79A, the tested form may be a part) above, with A79I, M210A counted along it
DmelOrco M210L, sequence (Q9VNB5 whole entry M210L, the tested form may be a part): as the sequence (Q9VNB5 whole entry I79A, the tested form may be a part) above, with A79I, M210L counted along it
DmelOrco F84S, sequence (Q9VNB5 whole entry F84S, the tested form may be a part): as the sequence (Q9VNB5 whole entry I79A, the tested form may be a part) above, with A79I, F84S counted along it
DmelOrco L141V, sequence (Q9VNB5 whole entry L141V, the tested form may be a part): as the sequence (Q9VNB5 whole entry I79A, the tested form may be a part) above, with A79I, L141V counted along it

CCc1ccc(NC(=O)CSc2nnc(-c3cccnc3)n2CC)cc1 [VUAA1, N-(4-ethylphenyl)−2-((4-ethyl-5-(3-pyridinyl)−4H-1,2,4-triazol-3-yl)thio)acetamide]
Response to VUAA1 compared with WT (DmelOrco Y390A): did not show significant change | Response to VUAA1 compared with WT (DmelOrco F84S): decreased the response | Response to VUAA1 compared with WT (DmelOrco I181W; 500 µM VUAA1, TEVC, I181W): significantly reduced or abolished the activation; also recorded: clear loss of VUAA1 activation | VUAA1-induced current, i181W (DmelOrco I181W; Fig.4b, individual oocytes): 0.52 and 0.99 and 0.9 and 0.42 and 0.27 and 1.33 and 0.95 and 0.29 and 0.18 and 1.75 and 2.06 and 1.1 and 0.66 and 0.22 and 0.14 and 0.54 and 0.08 | Current induced by VUAA1 (median) (DmelOrco M210L): 6.19 µA | Response to VUAA1 compared with WT (DmelOrco Y397A; 500 µM VUAA1, TEVC, Y397A): did not significantly affect the amplitude of activation; also recorded: did not significantly change the amplitude of activation | VUAA1-induced current, Y397A (DmelOrco Y397A; Fig.4b, individual oocytes): 3.14 and 11.04 and 1.66 and 7.27 and 3.17 and 5.5 and 5.32 and 6.03 and 4.8 and 7.35 and 2.62 | Current induced by VUAA1 (median) (DmelOrco F83A): 2.33 µA | VUAA1-induced current, V206S (DmelOrco V206S): 3.68 and 9.72 and 7.51 and 6.18 and 8.36 and 5.44 and 4.17 and 5.76 | Response to VUAA1 compared with WT (DmelOrco T80W; 500 µM VUAA1, TEVC, T80W): significantly reduced or abolished the activation | VUAA1-induced current, T80W (DmelOrco T80W; Fig.4b): 0.01 and 0.63 and 0.07 and 0.04 and 0.05 and 0.57 and 0.84 and 0.02 | VUAA1-induced current, T80W (DmelOrco T80W; Fig.4i dose-response, VUAA1 10 µM (Log(M) -5)): 0.03 and 0.06 (2×) and 0.07 and 0.2 (2×) and 0 and 0.12 | VUAA1-induced current, T80W (DmelOrco T80W; Fig.4i dose-response, VUAA1 25 µM (Log(M) -4.6)): 0.05 and 0.08 and 0.11 and 0.35 and 0.01 and 0.07 and 0.14 and 0.15 | VUAA1-induced current, T80W (DmelOrco T80W; Fig.4i dose-response, VUAA1 50 µM (Log(M) -4.3)): 0.09 and 0.1 and 0.13 and 0.45 and 0.01 and 0.05 and 0.31 and 0.15 | VUAA1-induced current, T80W (DmelOrco T80W; Fig.4i dose-response, VUAA1 100 µM (Log(M) -4)): 0.12 and 0.1 and 0.13 (2×) and 0.42 and 0 and 0.08 and 0.29 | VUAA1-induced current, T80W (DmelOrco T80W; Fig.4i dose-response, VUAA1 500 µM (Log(M) -3.3)): 0.19 and 0.12 (3×) and 0.14 and 0.45 and 0.01 and 0.07 | VUAA1-induced current, T80W (DmelOrco T80W; Fig.4i dose-response, VUAA1 1000 µM (Log(M) -3)): 0.26 and 0.16 and 0.18 and 0.47 and 0.02 and 0.23 and 0.31 and 0.1 | Imax (DmelOrco T80W; concentration-effect curve of VUAA1, TEVC, T80W): 0.23 µA | Response to VUAA1 compared with WT (DmelOrco L141V): did not induce significant change | Response to VUAA1 compared with WT (DmelOrco I79A; 500 µM VUAA1, TEVC, I79A): did not significantly affect the amplitude of activation | VUAA1-induced current, i79A (DmelOrco I79A; Fig.4b, individual oocytes): 1.26 and 4.71 and 3.65 and 1.07 and 3.06 and 3.49 and 3.19 and 0.68 and 2.72 and 3.85 | Current induced by VUAA1 (median) (DmelOrco M210A): 5.72 µA | Current induced by VUAA1 (median) (DmelOrco Y390S): 2.44 µA | Response to VUAA1 compared with WT (DmelOrco K373A; 500 µM VUAA1, TEVC, K373A): did not significantly affect the amplitude of activation; also recorded: did not change the response | VUAA1-induced current, K373A (DmelOrco K373A; Fig.4b, individual oocytes): 6.85 and 4.61 and 2.07 and 4.45 and 3.44 and 3.51 and 4.3 and 6.42 and 4.68 and 7.17 and 5.08
